According to ChEMBL document CHEMBL4043238, “Discovery of N-substituted 7-azaindoles as Pan-PIM kinase inhibitors - Lead series identification - Part II” (Bioorg Med Chem Lett, 2017):
pIC50: −log10 of the molar value. ≈ marks a conversion by molar mass, not a printed value. Blank lines part the entries; values can stand above or below the compound they belong to.

Legend:
[1] = molecular target: T1, Serine/threonine-protein kinase pim-1 (Homo sapiens, UniProt P11309); experiment: Inhibition of PIM1 (unknown origin) assessed as reduction in BAD phosphorylation at Ser112 residues by TR-FRET assay
[2] = molecular target: Serine/threonine-protein kinase pim-2 (Homo sapiens, UniProt Q9P1W9); experiment: Inhibition of PIM2 (unknown origin) assessed as reduction in BAD phosphorylation at Ser112 residues by TR-FRET assay
[3] = molecular target: Serine/threonine-protein kinase pim-3 (Homo sapiens, UniProt Q86V86); experiment: Inhibition of PIM3 (unknown origin) assessed as reduction in BAD phosphorylation at Ser112 residues by TR-FRET assay
KG-1 = experiment: Antiproliferative activity against human KG1 cells; format: functional, cell-based
[4] = molecular target: T1, Serine/threonine-protein kinase pim-1; experiment: Inhibition of PIM1 in human KG1 cells assessed as reduction in BAD phosphorylation; format: cell-based
[5] = Permeability from apical to basolateral side in human Caco2/TC7 cells at 5 uM; format: ADME, cell-based; details: Caco-2, read-out: permeability
[6] = molecular target: Voltage-gated inwardly rectifying potassium channel KCNH2 (Homo sapiens, UniProt Q12809); experiment: Inhibition of human ERG by patch clamp assay
[7] = Thermodynamic solubility of the compound at pH 7.4; format: physicochemical; details: buffer, read-out: Therm_solubility
Liver [8] = experiment: Stability in human liver microsomes; format: ADME, microsome
Liver [9] = experiment: Stability in rat liver microsomes; format: ADME, microsome
Liver [10] = experiment: Stability in mouse liver microsomes; format: ADME, microsome
Cytochrome P450 3A4 [11] = molecular target: T2, Cytochrome P450 3A4 (Homo sapiens, UniProt P08684); experiment: Inhibition of CYP3A4 (unknown origin) using midazolam as substrate; format: ADME
Cytochrome P450 3A4 [12] = molecular target: T2, Cytochrome P450 3A4; experiment: Inhibition of CYP3A4 (unknown origin) using testosterone as substrate; format: ADME
[13] = AUC (0 to infinity) in rat at 3 mg/kg, iv administered as single dose; format: ADME, organism-based; parameters: dose 3 mg/kg, route intravenous, time infinity; details: in vivo
[14] = AUC (0 to infinity) in rat at 10 mg/kg, po administered as single dose; format: ADME, organism-based; parameters: dose 10 mg/kg, time infinity, route oral; details: in vivo
[15] = Cmax in rat at 10 mg/kg, po administered as single dose; format: ADME, organism-based; parameters: dose 10 mg/kg, route oral; details: in vivo
[16] = Half life in rat at 3 mg/kg, iv administered as single dose; format: ADME, organism-based; details: in vivo
[17] = Clearance in rat at 3 mg/kg, iv administered as single dose; format: ADME, organism-based; details: in vivo
[18] = Volume of distribution at steady state in rat at 3 mg/kg, iv administered as single dose; format: ADME, organism-based; details: in vivo, read-out: Vdss
Mus musculus [19] = experiment: In vivo inhibition of PIM1 in SCID mouse xenografted with human KG1 cells assessed as reduction in BAD phosphorylation at 25 mg/kg, po administered as single dose measured at 8 hrs relative to control; format: functional; details: KG-1, po
Mus musculus [20] = experiment: In vivo inhibition of PIM1 in SCID mouse xenografted with human KG1 cells assessed as reduction in BAD phosphorylation at 25 mg/kg, po administered as single dose measured at 24 hrs relative to control; format: functional; details: KG-1, po
[21] = Plasma concentration in SCID mouse xenografted with human KG1 cells at 25 mg/kg, po administered as single dose measured at 8 hrs; format: ADME, organism-based
[22] = Plasma concentration in SCID mouse xenografted with human KG1 cells at 25 mg/kg, po administered as single dose measured at 24 hrs; format: ADME, organism-based
[23] = Drug uptake in tumor of SCID mouse xenografted with human KG1 cells at 25 mg/kg, po administered as single dose measured at 8 hrs; format: ADME, organism-based, Neoplasm; details: read-out: Drug uptake
[24] = Drug uptake in tumor of SCID mouse xenografted with human KG1 cells at 25 mg/kg, po administered as single dose measured at 24 hrs; format: ADME, organism-based, Neoplasm; details: read-out: Drug uptake
[25] = Protein binding in human plasma; format: ADME, cell-free; details: read-out: PPB
[26] = Protein binding in rat plasma; format: ADME, cell-free; details: read-out: PPB
[27] = Protein binding in mouse plasma; format: ADME, cell-free; details: read-out: PPB

pIC50 [1]: 8.52
pIC50 [2]: 7.82
SMILES: CSc1c(Cl)c2c(Cl)cc(C(N)=O)nc2n1C1CCCNC1 (configuration not stated)

pIC50 [1]: 6.14
pIC50 [3]: 5.25
SMILES: NC(=O)c1cc(Cl)c2c(Cl)c(I)n(Cc3ccncc3)c2n1

pIC50 [1]: 7.43
pIC50 [2]: 5.71
SMILES: Cc1c(-c2ccc(N3CCN(C)CC3)cc2)n(C)c2nc(C(N)=O)cc(Cl)c12

pIC50 [1]: 8.40
pIC50 [2]: 7.62
SMILES: CC(C)=Cc1c(Cl)c2c(Cl)cc(C(N)=O)nc2n1C1CCCNC1 (configuration not stated)

pIC50 [1]: 8.10
pIC50 [2]: 6.94
pIC50 [3]: 7.60
SMILES: NC(=O)c1cc(Cl)c2c(Cl)c(I)n(C3CCC(O)CC3)c2n1 (configuration not stated)

pIC50 [1]: 9.00
pIC50 [2]: 7.80
SMILES: Cn1cc(-c2c(Cl)c3c(Cl)cc(C(N)=O)nc3n2C2CCCNC2)cn1 (configuration not stated)

pIC50 [1]: 8.10
pIC50 [2]: 7.05
pIC50 [3]: 7.55
SMILES: NC(=O)c1cc(Cl)c2c(Cl)c(I)n(C3CCCC(O)C3)c2n1 (racemic)

pIC50 [1]: 8.70
pIC50 [2]: 7.47
pIC50 [3]: 8.22
SMILES: CN1CCC(n2c(I)c(Cl)c3c(Cl)cc(C(N)=O)nc32)CC1

pIC50 [1]: 7.89
pIC50 [2]: 6.96
SMILES: NC(=O)c1cc(Cl)c2c(Cl)c(-c3ccccc3)n(C3CCCNC3)c2n1 (configuration not stated)

Second part, the compound before the results:

SMILES: NC(=O)c1cc(Cl)c2c(Cl)c(I)n(C3CNC3)c2n1
pIC50 [1]: 6.60
pIC50 [2]: 5.37
pIC50 [3]: 6.46

SMILES: NC(=O)c1cc(Cl)c2c(Cl)c(I)n(C3CCCNCC3)c2n1 (racemic)
pIC50 [1]: 9.00
pIC50 [2]: 7.82
pIC50 [3]: 8.52

SMILES: NC(=O)c1cc(Cl)c2c(Cl)c(C3CC3)n([C@H]3CCCNC3)c2n1
pIC50 (KG-1): 7.21
pIC50 [1]: 9.00
pIC50 [2]: 8.22
pIC50 [4]: 7.37
Papp A→B at 5 µM [5]: 3.8 ×10⁻⁶ cm/s
pIC50 [6]: 5.54
solubility thermodynamic [7]: 225 µM (≈ 79.5 µg/mL)
Stability (Liver [8]): 1%
Stability (Liver [9]): 6%
Stability (Liver [10]): 10%
pIC50 (Cytochrome P450 3A4 [11]): < 4.52
pIC50 (Cytochrome P450 3A4 [12]): 4.68
AUC(0-inf) [13]: 2620 ng·h/mL
AUC(0-inf) [14]: 7450 ng·h/mL
Cmax [15]: 390 ng/mL
half-life [16]: 13.6 h
clearance [17]: 18.3 mL/min/kg
Vd [18]: 20.9 L/kg
inhibition in vivo at 25 mg/kg (Mus musculus [19]): 60 to 65%
inhibition in vivo at 25 mg/kg (Mus musculus [20]): 61%
concentration at 8 h [21]: 18.9 µM
concentration at 24 h [22]: 8.21 µM
concentration at 8 h [23]: 101 µM
concentration at 24 h [24]: 99 µM
fraction unbound [25]: 0.01
fraction unbound [26]: 0.01
fraction unbound [27]: 0.01

SMILES: NC(=O)c1cc(Cl)c2c(Cl)c(C(F)(F)F)n(C3CCCNC3)c2n1 (configuration not stated)
pIC50 [1]: 7.17
pIC50 [2]: 7.60

SMILES: COCC1CC1c1c(Cl)c2c(Cl)cc(C(N)=O)nc2n1C1CCCNC1 (configuration not stated)
pIC50 [1]: 7.38
pIC50 [2]: 6.53

SMILES: NC(=O)c1cc(Cl)c2c(Cl)c(I)n(CC3CCCN3)c2n1 (racemic)
pIC50 [1]: 7.92
pIC50 [2]: 6.42
pIC50 [3]: 7.35

SMILES: NC(=O)c1cc(Cl)c2c(Cl)c(I)n(C3CCNCC3)c2n1
pIC50 [1]: 8.70
pIC50 [2]: 7.55
pIC50 [3]: 8.40

SMILES: NC(=O)c1cc(Cl)c2c(Cl)c(I)n(C3CN4CCC3CC4)c2n1 (racemic)
pIC50 [1]: 8.22
pIC50 [2]: 7.00
pIC50 [3]: 7.57
